This note sets out measurements from publication PMC4707489, “A novel cell-penetrating peptide suppresses breast tumorigenesis by inhibiting β-catenin/LEF-1 signaling” (Scientific Reports, 2016).

One data set relates to MCF-7 cells. The data set is described as follows: Colony-formation assay. The format is cell-based, human. Conditions: MCF-7, 100 μmol/l, 14 day post-transfection (Fig. 3e). The procedure:
(§1) Transwell chambers of […] pore size were used in the in vitro invasion assay. MCF-7 and MDA-MB-231 cells were seeded onto the upper chamber and incubated with TAT-NLS-BLBD-6 and TAT-NLS-BLBD-6m peptide and 10% fetal bovine serum medium were added to the bottom chamber well. After 24 hr, cells invading the lower chamber were fixed with 4% paraformaldehyde solution and stained with 0.1% crystal violet for 30 min at 37 °C. Three random field images were obtained by microscopy, and the number of invading cells were counted. For the migration assay, MCF-7 and MDA-MB-231 cells were seeded onto 6-well plates. After 24 hr, an artificial wound was created using a 10-μl pipette tip, and the wound was incubated with TAT-NLS-BLBD-6 or TAT-NLS-BLBD-6m for 24 hr at 37 °C. The images of wound healing were captured by microscopy, and the wound healing distances were calculated by Image J (U.S. National Institutes of Health, Bethesda, MD, USA). For the colony formation assay, MCF-7 and MDA-MB-231 cells were seeded into 10-cm dishes with the medium containing TAT-NLS-BLBD-6 or TAT-NLS-BLBD-6m. After 2 weeks, cells were fixed with 4% paraformaldehyde solution and stained with 0.1% crystal violet for 30 min at 37 °C.

Data set [1] deals with MDA-MB-231 cells. Briefly: Colony-formation assay. The format is cell-based, human. Particulars: MDA-MB-231, 100 μmol/l, 14 day post-transfection (Fig. 3e). The procedure: as §1
Data set [2] deals with β-catenin/TCF4/LEF downstream genes. The data set is described as follows: Q-PCR of downstream genes in ZR-75-30. The format is cell-based, human. Conditions: ZR-75-30, 100 μmol/l, 48 hr post-transfection, relative to TAT-NLS-BLBD-6m (Fig. 6g). The procedure: Total RNA was isolated by Trizol reagent (Invitrogen, Carlsbad, CA, USA) and reverse transcribed to produce cDNA using the Deoxy + HiSpec reverse transcriptase kit (Yeastern, Taipei, Taiwan) according to the manufacturer instructions. Q-PCR was analyzed with SYBR Green Master Mix (Applied Biosystems, Stockholm, Sweden) and subjected to quantitation in an […]. The primers used for PCR are given in Supplementary Table S5 online. The Q-PCR data were normalized to 18S cDNA levels.

For a further data set, the system named is breast cancer cells. Briefly: Cell growth in combination with E2, BBP or TAM (CCK-8). The data set is classed as cell-based, human. Particulars: 48 hr (Fig. 1e).
For data set [3], the system named is MDA-MB-231 cells. Briefly: Cell cycle analysis, sub-G1 (propidium iodide, flow cytometry). The data set is classed as cell-based, human. Particulars: MDA-MB-231, 100 μmol/l peptide, flow cytometry (Fig. 3a). The procedure: MCF-7 and MDA-MB-231 cells were plated in 6-well plates for 24 hr, and the medium was replaced with fresh culture medium containing 100 μmol/l peptide. After incubation for 24 hr, the cells were harvested by trypsinization and then fixed with 70% 4 °C ethanol. Intracellular DNA was stained with […] propidium iodide in the dark for 30 min at room temperature, and the percentages of sub-G1 cells were determined by flow cytometry (BD LSRII analyzer; BD Biosciences).
(In general: In flow cytometry, cells or beads pass a laser one at a time.)

The next data set deals with β-catenin. The data set is described as follows: Peptide-protein interaction by immunoprecipitation and PLA. The data set is classed as binding, human. The procedure:
Immunoprecipitation and western blotting were performed as described previously. MCF-7 and MDA-MB-231 cells were harvested in 4 °C phosphate-buffered saline and cell pellets were lysed with RIPA lysis buffer (Millipore, Bedford, MA, USA) for 30 min on ice. Cell lysis supernatant liquid was obtained by centrifugation at 10,000 × g for 10 min, incubated with protein-G beads (Roche, Indianapolis, IN) and anti-β-catenin, and subjected to western blotting. For the western blotting assay, cellular extract proteins were separated by SDS-polyacrylamide gel (SDS-PAGE) and transferred to nitrocellulose membrane (Millipore) using a dry transfer apparatus (Bio-Rad). […]
MCF-7 and MDA-MB-231 cells were cultured in 35-mm plates with cover slides on the plate bottom and treated with NLS-BLBD-6, TAT-BLBD-6 and TAT-NLS-BLBD-6 peptide for 24 hr. […] For the immunofluorescence assay, the slides were incubated with primary antibodies, anti-β-catenin (Epitomics) and anti-TAT (Santa Cruz), for 6 hr, and Alexa-488 fluorescence secondary antibodies for 1 hr. […] For the TUNEL assay, apoptosis was analyzed by the Apo-BrdU-red DNA Fragmentation Assay kit, according to the manufacturer’s protocol (BioVision, Mountain View, CA, USA). For the PLA, the protein–protein interaction assay was analyzed by Duolink® using PLA® Technology, according to the manufacturer’s protocol (Olink Bioscience, Uppsala, Sweden). […]

Experimental for breast cancer cells: Cell growth was analyzed using 2-(2-methoxy-4-nitrophenyl)-3-(4-nitroph enyl)-5-(2,4-disulfophenyl)-2H-tetrazolium, monosodium salt, and the Cell Counting Kit-8 (CCK-8, Sigma). […] After culturing for another 48 hr, cell growth was analyzed by CCK-8 and the optical density was detected at 450 nm. The growth ratio was normalized to the cells without treatment.

As for H-TAT-NLS-ATDEMIPF-NH2 [TAT-NLS-BLBD-6], the colony formation entry is “inhibited the mobility and proliferation” in the data set with MCF-7 cells; “inhibited the mobility and proliferation” in the data set on MDA-MB-231 cells [1]. In data set [2], the “expression of β-catenin/TCF4/LEF downstream genes” value is listed as “inhibits”. Moreover, the “cell growth, combination with E2 or BBP” value with breast cancer cells (peptide 100 μmol/l with E2 (1 μM) or BBP (1 μM)) is “blocked the activity of E2 and BBP”. Further, in the data set on breast cancer cells (peptide 100 μmol/l with TAM (1 μM)), the “cell growth, combination with TAM” value is listed as “increased the response of TAM”. Further, in the data set with H184B5F5/M10 cells, the “cell growth of normal mammary epithelial cells” value is “did not inhibit the growth”. Further, the “sub-G1 phase region (pro-apoptotic effect)” value in the data set on MDA-MB-231 cells [3] is listed as 43.10%. Also, the “binding to β-catenin” value with β-catenin (MCF-7 cell nuclei, immunoprecipitation and PLA, 2 hr post-transfection (Fig. 2b,c)) is on record as “bound to the β-catenin elements”; in the data set on β-catenin (MDA-MB-231 cell nuclei, PLA, 100 μmol/l, 2 hr post-transfection (Fig. 2c)), “bound to the β-catenin elements”.
